In general, MIC refers to the lowest concentration that inhibits growth of the organism.

Here are results for three compounds from ChEMBL document CHEMBL1629665, “Contribution of vraSR and graSR point mutations to vancomycin resistance in vancomycin-intermediate Staphylococcus aureus” (2009).

≈ marks a conversion by molar mass, not a printed value.

Common to all, as to assay type: functional
For experiment [1], the system named is Staphylococcus aureus. The experiment can be described thus: Antibacterial activity against vancomycin-intermediate Staphylococcus aureus Mu50 after 24 hrs by Etest.
The test system of experiment [2] is Staphylococcus aureus. The experiment can be described thus: Antibacterial activity against vancomycin-susceptible Staphylococcus aureus Mu50omega after 24 hrs by Etest.
Experiment [3] has as its system Staphylococcus aureus. The experiment can be described thus: Antibacterial activity against vancomycin-susceptible Staphylococcus aureus Mu50omega expressing vraSn mutant gene after 24 hrs by Etest.
In experiment [4] the test system is Staphylococcus aureus. The experiment can be described thus: Antibacterial activity against vancomycin-susceptible Staphylococcus aureus Mu50omega expressing vraSm mutant gene after 24 hrs by Etest.
Experiment [5] relates to Staphylococcus aureus. The experiment can be described thus: Antibacterial activity against vancomycin-susceptible Staphylococcus aureus Mu50omega expressing vraSm, graRm mutant gene after 24 hrs by Etest.
The subject of experiment [6] is Staphylococcus aureus. Description: Antibacterial activity against vancomycin-intermediate Staphylococcus aureus Mu50 after 48 hrs by Etest.
Experiment [7] concerns Staphylococcus aureus. The experiment can be described thus: Antibacterial activity against vancomycin-susceptible Staphylococcus aureus Mu50omega after 48 hrs by Etest.
Experiment [8] has as its system Staphylococcus aureus. The experiment can be described thus: Antibacterial activity against vancomycin-susceptible Staphylococcus aureus Mu50omega expressing vraSn mutant gene after 48 hrs by Etest.
The subject of experiment [9] is Staphylococcus aureus. The experiment can be described thus: Antibacterial activity against vancomycin-susceptible Staphylococcus aureus Mu50omega expressing vraSm mutant gene after 48 hrs by Etest.
Experiment [10] deals with Staphylococcus aureus. The experiment can be described thus: Antibacterial activity against vancomycin-susceptible Staphylococcus aureus Mu50omega expressing vraSm, graRm mutant gene after 48 hrs by Etest.
Experiment [11] concerns Staphylococcus aureus. Description: Antibacterial activity against vancomycin-intermediate Staphylococcus aureus Mu50 after 24 hrs by Etest in presence of Sulbactam. The following applies: Mu50, 24 h.
The subject of experiment [12] is Staphylococcus aureus. Description: Antibacterial activity against vancomycin-susceptible Staphylococcus aureus Mu50omega after 24 hrs by Etest in presence of Sulbactam.
Experiment [13] relates to Staphylococcus aureus. Description: Antibacterial activity against vancomycin-susceptible Staphylococcus aureus Mu50omega expressing vraSn mutant gene after 24 hrs by Etest in presence of Sulbactam.
The subject of experiment [14] is Staphylococcus aureus. The experiment can be described thus: Antibacterial activity against vancomycin-susceptible Staphylococcus aureus Mu50omega expressing vraSm mutant gene after 24 hrs by Etest in presence of Sulbactam.
For experiment [15], the system named is Staphylococcus aureus. Description: Antibacterial activity against vancomycin-susceptible Staphylococcus aureus Mu50omega expressing vraSm, graRm mutant gene after 24 hrs by Etest in presence of Sulbactam.
Experiment [16] concerns Staphylococcus aureus. Description: Antibacterial activity against vancomycin-intermediate Staphylococcus aureus Mu50 after 48 hrs by Etest in presence of Sulbactam. The following applies: Mu50, 48 h.
Experiment [17] deals with Staphylococcus aureus. The experiment can be described thus: Antibacterial activity against vancomycin-susceptible Staphylococcus aureus Mu50omega after 48 hrs by Etest in presence of Sulbactam.
The subject of experiment [18] is Staphylococcus aureus. Description: Antibacterial activity against vancomycin-susceptible Staphylococcus aureus Mu50omega expressing vraSn mutant gene after 48 hrs by Etest in presence of Sulbactam.
Experiment [19] deals with Staphylococcus aureus. The experiment can be described thus: Antibacterial activity against vancomycin-susceptible Staphylococcus aureus Mu50omega expressing vraSm mutant gene after 48 hrs by Etest in presence of Sulbactam.
Experiment [20] has as its system Staphylococcus aureus. The experiment can be described thus: Antibacterial activity against vancomycin-susceptible Staphylococcus aureus Mu50omega expressing vraSm, graRm mutant gene after 48 hrs by Etest in presence of Sulbactam.

As to `CN(C)[C@@H]1C(O)=C(C(N)=O)C(=O)[C@@]2(O)C(O)=C3C(=O)c4c(O)cccc4[C@@](C)(O)[C@H]3C[C@@H]12` [TETRACYCLINE], the MIC in the experiment with Staphylococcus aureus [1] (Mu50, 24 h) was 32 µg/mL (≈ 72 µM); in the experiment with Staphylococcus aureus [2], 32 µg/mL (≈ 72 µM); against Staphylococcus aureus [3] it was 24 µg/mL (≈ 54 µM); against Staphylococcus aureus [4], 24 µg/mL (≈ 54 µM); against Staphylococcus aureus [5] it was 24 µg/mL (≈ 54 µM); with Staphylococcus aureus [6] (Mu50, 48 h), 48 µg/mL (≈ 108 µM). The MIC in the experiment on Staphylococcus aureus [7], in the experiment on Staphylococcus aureus [8], against Staphylococcus aureus [9] and against Staphylococcus aureus [10] was 48 µg/mL (≈ 108 µM) each time.
On to `CC1(C)S[C@@H]2[C@H](NC(=O)[C@H](N)c3ccccc3)C(=O)N2[C@H]1C(=O)O` [AMPICILLIN], for which the MIC turned out to be 8 µg/mL (≈ 22.9 µM) against Staphylococcus aureus [1] (Mu50, 24 h); 1 µg/mL (≈ 2.86 µM) in the experiment with Staphylococcus aureus [2]; 12 µg/mL (≈ 34.3 µM) in the experiment with Staphylococcus aureus [3]; 12 µg/mL (≈ 34.3 µM) in the experiment with Staphylococcus aureus [4]; 12 µg/mL (≈ 34.3 µM) against Staphylococcus aureus [5]; 8 µg/mL (≈ 22.9 µM) in the experiment with Staphylococcus aureus [6] (Mu50, 48 h). Also, the MIC is 1 µg/mL (≈ 2.86 µM) in the experiment on Staphylococcus aureus [7]; 12 µg/mL (≈ 34.3 µM) in the experiment with Staphylococcus aureus [8]; 12 µg/mL (≈ 34.3 µM) against Staphylococcus aureus [9]; 12 µg/mL (≈ 34.3 µM) against Staphylococcus aureus [10]; 48 µg/mL in the experiment with Staphylococcus aureus [11]; 2 µg/mL with Staphylococcus aureus [12]. The MIC was 48 µg/mL in the experiment with Staphylococcus aureus [13]; 64 µg/mL with Staphylococcus aureus [14]; 64 µg/mL in the experiment with Staphylococcus aureus [15]; 48 µg/mL in the experiment on Staphylococcus aureus [16]; 2 µg/mL in the experiment with Staphylococcus aureus [17]; 48 µg/mL with Staphylococcus aureus [18]. The MIC in the experiment with Staphylococcus aureus [19] and in the experiment with Staphylococcus aureus [20] was 64 µg/mL throughout.
In the case of GENTAMICIN, the MIC in the experiment on Staphylococcus aureus [1] worked out at 0.128 µg/mL; in the experiment on Staphylococcus aureus [2], 0.064 µg/mL; in the experiment on Staphylococcus aureus [3], 64 µg/mL; in the experiment with Staphylococcus aureus [4] it was 0.064 µg/mL; against Staphylococcus aureus [5], 0.064 µg/mL; in the experiment with Staphylococcus aureus [6], 0.128 µg/mL. Further, the MIC with Staphylococcus aureus [7], against Staphylococcus aureus [8], against Staphylococcus aureus [9] and in the experiment on Staphylococcus aureus [10] was 0.064 µg/mL in each case.
